# Measurements: patent US9650339B2, “Inhibitors of histone demethylases” (Gilead Sciences, Inc., priority 2013, dated 2017)
# Columns and labels:
# KDM2B (FBXL10) = target: T1, KDM2B (FBXL10) (Homo sapiens, UniProt Q8NHM5); experiment: Histone lysine demethylase AlphaLISA assay, KDM2B; format: biochemical; conditions: read-out: KDM2B HDME Inhibition IC50
# T1 sequence (Q8NHM5 1-650): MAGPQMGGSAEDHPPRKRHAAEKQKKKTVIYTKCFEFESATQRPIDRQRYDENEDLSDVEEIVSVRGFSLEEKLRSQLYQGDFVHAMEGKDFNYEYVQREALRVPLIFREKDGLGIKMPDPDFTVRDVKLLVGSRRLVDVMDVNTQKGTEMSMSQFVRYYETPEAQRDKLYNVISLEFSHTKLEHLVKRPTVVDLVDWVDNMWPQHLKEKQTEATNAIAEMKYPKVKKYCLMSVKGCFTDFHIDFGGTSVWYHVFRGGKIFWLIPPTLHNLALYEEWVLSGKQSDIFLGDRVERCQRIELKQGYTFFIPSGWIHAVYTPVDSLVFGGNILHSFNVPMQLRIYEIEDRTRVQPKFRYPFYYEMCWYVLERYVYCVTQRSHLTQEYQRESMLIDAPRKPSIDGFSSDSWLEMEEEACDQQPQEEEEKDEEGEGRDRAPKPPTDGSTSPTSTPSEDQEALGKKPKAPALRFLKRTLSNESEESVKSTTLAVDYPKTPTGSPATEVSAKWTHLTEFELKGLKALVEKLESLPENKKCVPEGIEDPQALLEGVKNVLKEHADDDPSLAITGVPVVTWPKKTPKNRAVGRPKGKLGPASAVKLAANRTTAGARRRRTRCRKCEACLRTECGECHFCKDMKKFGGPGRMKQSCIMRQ
# Procedure, shortened: (§1)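 Each enzyme was pre-incubated 10 min in buffer, then 10 min with compound in 3% DMSO solution. The reaction started with biotinylated histone H3 peptide substrate plus 25 μM L-ascorbate and 10 μM α-KG at room temperature. Detection used AlphaLISA acceptor beads, then streptavidin donor beads, in the dark.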
# MCF7 cells = experiment: Cell proliferation assay MCF7; format: cell-based; conditions: MCF7 human breast cancer cells; 120 hours; ATPlite 1 Step
# Procedure, shortened: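 After 120 h of compound exposure (duplicates, DMSO at most 0.5%) in DMEM GlutaMAX with 10% FBS, ATPlite 1 Step luminescence measured cellular ATP. Compound was added 24 h after seeding, at a density chosen for ~90% confluence at the end.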
# KDM5C (JARID1C) = target: T2, KDM5C (JARID1C) (Homo sapiens, UniProt P41229); experiment: Histone lysine demethylase AlphaLISA assay, KDM5C; format: biochemical; conditions: read-out: KDM5C HDME Inhibition IC50
# T2 construct: 2-1560; purchased BPS; host or cells: Bac (baculovirus system)
# Procedure, shortened: as §1
# T2 sequence (P41229 2-1560): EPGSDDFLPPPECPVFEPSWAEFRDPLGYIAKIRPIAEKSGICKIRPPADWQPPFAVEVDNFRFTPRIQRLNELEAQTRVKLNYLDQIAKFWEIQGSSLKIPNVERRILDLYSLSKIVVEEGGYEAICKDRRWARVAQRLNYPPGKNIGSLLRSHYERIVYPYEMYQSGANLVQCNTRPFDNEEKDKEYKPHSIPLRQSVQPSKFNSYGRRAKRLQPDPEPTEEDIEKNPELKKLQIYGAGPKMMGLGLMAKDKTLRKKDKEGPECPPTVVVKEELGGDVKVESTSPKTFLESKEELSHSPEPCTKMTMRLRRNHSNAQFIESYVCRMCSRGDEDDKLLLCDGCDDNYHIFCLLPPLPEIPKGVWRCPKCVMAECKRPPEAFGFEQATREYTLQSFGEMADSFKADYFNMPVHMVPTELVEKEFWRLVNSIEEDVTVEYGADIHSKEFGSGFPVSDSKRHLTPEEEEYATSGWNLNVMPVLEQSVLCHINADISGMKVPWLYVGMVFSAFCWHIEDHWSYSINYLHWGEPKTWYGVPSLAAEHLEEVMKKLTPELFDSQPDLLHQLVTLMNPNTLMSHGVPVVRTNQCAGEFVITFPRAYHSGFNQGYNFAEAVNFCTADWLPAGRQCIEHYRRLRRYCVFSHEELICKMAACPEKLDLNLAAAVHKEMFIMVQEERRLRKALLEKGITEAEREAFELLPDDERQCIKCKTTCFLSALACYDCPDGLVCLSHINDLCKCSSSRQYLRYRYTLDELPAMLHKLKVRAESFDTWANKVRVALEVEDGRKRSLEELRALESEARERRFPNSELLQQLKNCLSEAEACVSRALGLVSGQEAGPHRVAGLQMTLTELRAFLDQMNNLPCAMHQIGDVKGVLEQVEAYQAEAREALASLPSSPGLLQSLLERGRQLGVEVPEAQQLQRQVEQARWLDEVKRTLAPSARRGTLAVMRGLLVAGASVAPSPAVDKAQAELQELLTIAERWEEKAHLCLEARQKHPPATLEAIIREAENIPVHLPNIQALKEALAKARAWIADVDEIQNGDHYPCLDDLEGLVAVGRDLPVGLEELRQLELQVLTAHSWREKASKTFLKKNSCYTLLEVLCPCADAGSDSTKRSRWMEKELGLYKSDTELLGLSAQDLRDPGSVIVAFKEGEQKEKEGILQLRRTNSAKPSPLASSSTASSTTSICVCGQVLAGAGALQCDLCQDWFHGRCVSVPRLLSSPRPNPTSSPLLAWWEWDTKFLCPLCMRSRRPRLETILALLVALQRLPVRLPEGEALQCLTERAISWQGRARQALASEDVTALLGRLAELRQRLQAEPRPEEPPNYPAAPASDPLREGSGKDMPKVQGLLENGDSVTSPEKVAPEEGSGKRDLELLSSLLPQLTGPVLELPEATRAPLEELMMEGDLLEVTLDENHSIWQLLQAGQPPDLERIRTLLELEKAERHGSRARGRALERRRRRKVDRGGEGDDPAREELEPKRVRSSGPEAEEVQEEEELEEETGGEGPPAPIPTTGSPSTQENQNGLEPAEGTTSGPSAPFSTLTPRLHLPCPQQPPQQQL
Structure (SMILES),IC50 (KDM2B (FBXL10)),EC50 (MCF7 cells),IC50 (KDM5C (JARID1C))
"CN(C)CCCCNCc1cc(CN)ccn1 [Compound 2, [2-({[4-(dimethylamino)butyl]-amino}methyl)pyridin-4-yl]methanamine]",> 2500 nM,< 250 nM,
"CN(C)CCNCc1ccnc(CNCCCN(C)Cc2ccccc2)c1 [Compound 18, benzyl[3-({[4-({[2-(dimethylamino)ethyl]-amino}methyl)pyridin-2-yl]methyl}-amino)propyl]-methylamine]",> 2500 nM,,
"COCCNCc1ccnc(CNCCCN(C)Cc2ccccc2)c1 [Compound 19, benzyl(3-{[(4-{[(2-methoxyethyl)amino]-methyl}pyridin-2-yl)methyl]amino}-propyl)methylamine]",> 2500 nM,,> 2500 nM
"COc1ccccc1CN1CCC(NC(=O)CNCc2cc(CNC3CC3)ccn2)CC1 [Compound 20, 2-[({4-[(cyclopropylamino)-methyl]pyridin-2-yl}methyl)amino]-N-{1-[(2-methoxyphenyl)methyl]-piperidin-4-yl}acetamide]",> 2500 nM,,< 250 nM
"CCN(CCN(C)C)C(=O)CN(Cc1cc(CNC(=O)C(F)(F)F)ccn1)C(=O)C(F)(F)F [Compound 26, N-[(2-{[N-({[2-(dimethylamino)ethyl]-(ethyl)carbamoyl}-methyl)-2,2,2-trifluoroacetamido]-methyl}pyridin-4-yl)methyl]-2,2,2-trifIuoroacetamide]",,< 250 nM,
"COC(=O)CNCc1cc(/C=N/C2CC2)ccn1 [Compound 59, methyl 2-[({4-[N-cyclopropyl-carboximidoyl]pyridin-2-yl}methyl)amino]-acetate]",,,< 250 nM
"CCN(CC)CCCCNCc1cc(C2NCCCN2C)ccn1 (centres unmarked) [Compound 68, [4-(diethylamino)butyl]({[4-(1-methyl-1,3-diazinan-2-yl)pyridin-2-yl]methyl})amine]",,< 250 nM,
"O=Cc1ccnc(CNCC(=O)NC2CCN(Cc3ccccc3)C2)c1 (centres unmarked) [Compound 113, N-(1-benzylpyrrolidin-3-yl)-2-{[(4-formylpyridin-2-yl)methyl]amino}-acetamide]",,,250 to 2500 nM
